For experiment [1], the target named is 5-hydroxytryptamine receptor 2A (Homo sapiens) (UniProt P28223). Kind of experiment: Antagonist activity at recombinant human 5-HT2A assessed as inhibition of agonist-induced effect at 10 uM by aequorin reporter based assay. The format is functional.
Experiment [2] concerns the target 5-hydroxytryptamine receptor 4 (Homo sapiens) (UniProt Q13639). Kind of experiment: Antagonist activity at recombinant human 5-HT4E assessed as inhibition of agonist-induced cAMP levels at 10 uM by HTRF assay. The format is functional. (In general: cAMP levels reflect the balance of adenylyl cyclase and phosphodiesterase activity.)
Experiment [3] deals with 5-hydroxytryptamine receptor 6 (Homo sapiens) (UniProt P50406). Kind of experiment: Agonist activity at recombinant human 5-HT6R assessed as induction of cAMP levels at 10 uM by HTRF assay relative to agonist. Type of experiment: functional.
5-hydroxytryptamine receptor 6 (Homo sapiens), sequence (P50406 whole entry): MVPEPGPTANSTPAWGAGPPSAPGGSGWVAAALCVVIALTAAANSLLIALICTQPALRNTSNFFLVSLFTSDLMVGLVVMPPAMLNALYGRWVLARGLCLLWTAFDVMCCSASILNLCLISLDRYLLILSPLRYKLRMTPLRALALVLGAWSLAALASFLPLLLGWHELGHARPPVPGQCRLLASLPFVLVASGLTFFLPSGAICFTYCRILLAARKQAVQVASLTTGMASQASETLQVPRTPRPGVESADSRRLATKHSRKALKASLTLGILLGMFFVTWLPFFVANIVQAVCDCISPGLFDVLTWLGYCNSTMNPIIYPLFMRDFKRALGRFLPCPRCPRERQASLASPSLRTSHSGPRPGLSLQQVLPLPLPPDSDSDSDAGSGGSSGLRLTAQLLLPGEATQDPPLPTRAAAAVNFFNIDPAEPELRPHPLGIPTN
Experiment [4] deals with 5-hydroxytryptamine receptor 7 (Homo sapiens) (UniProt P34969). Nature of the experiment: Agonist activity at recombinant human 5-HT7R assessed as induction of cAMP levels at 10 uM by HTRF assay relative to agonist. The format is functional.
5-hydroxytryptamine receptor 7 (Homo sapiens), sequence (P34969 whole entry): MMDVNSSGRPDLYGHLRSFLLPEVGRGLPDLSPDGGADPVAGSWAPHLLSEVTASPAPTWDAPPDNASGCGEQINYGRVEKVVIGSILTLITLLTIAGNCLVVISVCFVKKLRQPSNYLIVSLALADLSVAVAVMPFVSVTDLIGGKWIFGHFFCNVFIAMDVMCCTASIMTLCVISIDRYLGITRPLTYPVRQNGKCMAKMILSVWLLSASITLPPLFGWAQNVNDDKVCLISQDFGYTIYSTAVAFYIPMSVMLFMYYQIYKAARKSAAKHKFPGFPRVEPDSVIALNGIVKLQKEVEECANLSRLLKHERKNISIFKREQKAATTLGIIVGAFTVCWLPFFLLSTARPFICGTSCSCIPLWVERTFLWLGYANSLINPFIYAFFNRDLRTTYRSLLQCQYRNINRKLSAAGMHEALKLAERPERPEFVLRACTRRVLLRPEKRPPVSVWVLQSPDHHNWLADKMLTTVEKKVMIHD
Experiment [5] addresses T1, Adenosine receptor A1 (Homo sapiens) (UniProt P30542).
T1 sequence (whole entry): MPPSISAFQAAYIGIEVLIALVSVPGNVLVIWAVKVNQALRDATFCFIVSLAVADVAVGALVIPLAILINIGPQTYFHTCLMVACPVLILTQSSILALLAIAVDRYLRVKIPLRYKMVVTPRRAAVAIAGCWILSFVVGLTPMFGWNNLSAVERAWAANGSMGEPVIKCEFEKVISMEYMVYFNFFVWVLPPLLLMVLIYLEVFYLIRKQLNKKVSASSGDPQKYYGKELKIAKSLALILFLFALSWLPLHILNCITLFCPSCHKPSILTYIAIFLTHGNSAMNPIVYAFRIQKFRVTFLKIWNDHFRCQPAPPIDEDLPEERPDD
Nature of the experiment: Agonist activity at recombinant human adenosine A1 receptor […] at 10 uM by HTRF assay relative to agonist. Type of experiment: functional.

For experiment [6], the target named is T2, Alpha-2B adrenergic receptor (Homo sapiens) (UniProt P18089).
T2 sequence (whole entry): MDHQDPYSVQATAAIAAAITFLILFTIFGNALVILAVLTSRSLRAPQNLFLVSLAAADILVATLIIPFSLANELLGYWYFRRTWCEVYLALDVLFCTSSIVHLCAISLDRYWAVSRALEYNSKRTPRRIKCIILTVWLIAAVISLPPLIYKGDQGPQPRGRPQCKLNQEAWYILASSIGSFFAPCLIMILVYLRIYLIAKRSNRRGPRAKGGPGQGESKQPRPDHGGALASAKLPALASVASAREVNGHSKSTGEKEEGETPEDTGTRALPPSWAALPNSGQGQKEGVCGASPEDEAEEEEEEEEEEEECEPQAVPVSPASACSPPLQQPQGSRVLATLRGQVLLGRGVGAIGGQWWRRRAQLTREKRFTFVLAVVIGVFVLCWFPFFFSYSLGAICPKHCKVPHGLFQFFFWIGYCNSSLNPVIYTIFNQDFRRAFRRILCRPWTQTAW
Nature of the experiment: Agonist activity at recombinant human alpha-2b adrenergic receptor at 10 uM by GTPgamma[35S] binding-based assay relative to agonist. Type of experiment: functional. Background: GTPγS is a poorly hydrolysed GTP analogue; its binding reports G protein activation.

For experiment [7], the target named is Cannabinoid receptor 1 (Homo sapiens) (UniProt P21554). Kind of experiment: Agonist activity at recombinant human CB1 receptor […] at 10 uM by HTRF assay relative to agonist. Type of experiment: functional.
Cannabinoid receptor 1 (Homo sapiens), sequence (P21554 whole entry): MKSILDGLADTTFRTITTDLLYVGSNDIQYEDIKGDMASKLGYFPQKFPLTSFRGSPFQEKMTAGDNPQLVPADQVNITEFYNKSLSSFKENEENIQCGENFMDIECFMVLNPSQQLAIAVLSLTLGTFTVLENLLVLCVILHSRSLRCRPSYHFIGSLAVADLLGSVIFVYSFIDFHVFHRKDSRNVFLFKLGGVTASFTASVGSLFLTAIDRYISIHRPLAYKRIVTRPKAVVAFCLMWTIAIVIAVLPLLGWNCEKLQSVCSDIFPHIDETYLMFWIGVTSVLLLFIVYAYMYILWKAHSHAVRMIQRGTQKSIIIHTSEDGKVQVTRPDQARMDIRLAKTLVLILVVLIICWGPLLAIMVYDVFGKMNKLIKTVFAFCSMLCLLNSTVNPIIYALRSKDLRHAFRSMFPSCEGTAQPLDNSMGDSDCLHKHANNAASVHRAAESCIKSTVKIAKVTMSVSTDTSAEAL
Experiment [8] has as its target D(2) dopamine receptor (Homo sapiens) (UniProt P14416). Kind of experiment: Antagonist activity at recombinant human dopamine D2L receptor assessed as inhibition of agonist-induced effect at 10 uM by GTPgamma[35S] binding-based assay.
Experiment [9] deals with T3, Endothelin-1 receptor (Homo sapiens) (UniProt P25101).
T3 sequence (whole entry): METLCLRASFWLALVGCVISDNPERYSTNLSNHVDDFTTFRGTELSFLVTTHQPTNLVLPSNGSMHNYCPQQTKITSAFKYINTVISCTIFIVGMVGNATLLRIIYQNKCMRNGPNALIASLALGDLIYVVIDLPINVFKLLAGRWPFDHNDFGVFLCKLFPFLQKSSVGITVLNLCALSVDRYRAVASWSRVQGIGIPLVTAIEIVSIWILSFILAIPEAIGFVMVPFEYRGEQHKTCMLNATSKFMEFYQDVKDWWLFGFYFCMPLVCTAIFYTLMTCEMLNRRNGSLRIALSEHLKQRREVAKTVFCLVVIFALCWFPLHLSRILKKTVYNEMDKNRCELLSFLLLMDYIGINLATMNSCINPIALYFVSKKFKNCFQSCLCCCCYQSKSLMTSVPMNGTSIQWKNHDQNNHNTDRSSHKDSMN
Nature of the experiment: Agonist activity at recombinant human ETA receptor at 10 uM by aequorin reporter based assay relative to agonist. Type of experiment: functional.

Experiment [10] addresses Muscarinic acetylcholine receptor M3 (Homo sapiens) (UniProt P20309). Kind of experiment: Agonist activity at recombinant human muscarinic M3 receptor at 10 uM by aequorin reporter based assay relative to agonist. Type of experiment: functional.
The target of experiment [11] is T4, Muscarinic acetylcholine receptor M4 (Homo sapiens) (UniProt P08173).
T4 sequence (whole entry): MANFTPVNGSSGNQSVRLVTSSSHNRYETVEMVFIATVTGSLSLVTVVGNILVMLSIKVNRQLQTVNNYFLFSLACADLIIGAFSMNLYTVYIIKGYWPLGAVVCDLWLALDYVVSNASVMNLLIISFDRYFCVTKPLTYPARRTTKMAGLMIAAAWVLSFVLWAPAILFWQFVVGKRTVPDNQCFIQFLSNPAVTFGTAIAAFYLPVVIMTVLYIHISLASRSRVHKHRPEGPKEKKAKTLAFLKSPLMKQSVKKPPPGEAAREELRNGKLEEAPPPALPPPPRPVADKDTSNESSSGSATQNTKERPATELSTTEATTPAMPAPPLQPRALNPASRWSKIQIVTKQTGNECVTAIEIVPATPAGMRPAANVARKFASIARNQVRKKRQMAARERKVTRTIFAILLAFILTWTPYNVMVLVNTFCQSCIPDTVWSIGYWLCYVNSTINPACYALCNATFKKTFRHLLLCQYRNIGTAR
Kind of experiment: Agonist activity at recombinant human muscarinic M4 receptor at 10 uM by GTPgamma[35S] binding-based assay relative to agonist. Type of experiment: functional.

Experiment [12] deals with Somatostatin receptor type 4 (Homo sapiens) (UniProt P31391). Nature of the experiment: Agonist activity at recombinant human somatostatin receptor 4 at 10 uM by GTPgamma[35S] binding-based assay relative to agonist. Type of experiment: functional.
Somatostatin receptor type 4 (Homo sapiens), sequence (P31391 whole entry): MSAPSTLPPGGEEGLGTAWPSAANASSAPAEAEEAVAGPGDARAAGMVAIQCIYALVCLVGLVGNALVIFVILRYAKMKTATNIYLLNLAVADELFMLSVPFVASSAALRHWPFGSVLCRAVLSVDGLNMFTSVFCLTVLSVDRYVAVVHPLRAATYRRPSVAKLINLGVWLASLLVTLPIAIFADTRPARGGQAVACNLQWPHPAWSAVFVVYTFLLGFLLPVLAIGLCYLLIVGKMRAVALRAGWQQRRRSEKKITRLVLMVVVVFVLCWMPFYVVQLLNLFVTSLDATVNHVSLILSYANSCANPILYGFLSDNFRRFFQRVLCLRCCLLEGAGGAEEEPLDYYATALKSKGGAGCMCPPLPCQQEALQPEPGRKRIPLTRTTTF

Consider one compound from ChEMBL document CHEMBL4130363, “Synthesis and pharmacological evaluation of benzamide derivatives as potent and selective sigma-1 protein ligands” (Eur J Med Chem, 2017).

One may read the inhibition as how much of the control response was suppressed.

SMILES strings stand for the structures.

5-hydroxytryptamine receptor 4 (Homo sapiens), sequence (Q13639 whole entry): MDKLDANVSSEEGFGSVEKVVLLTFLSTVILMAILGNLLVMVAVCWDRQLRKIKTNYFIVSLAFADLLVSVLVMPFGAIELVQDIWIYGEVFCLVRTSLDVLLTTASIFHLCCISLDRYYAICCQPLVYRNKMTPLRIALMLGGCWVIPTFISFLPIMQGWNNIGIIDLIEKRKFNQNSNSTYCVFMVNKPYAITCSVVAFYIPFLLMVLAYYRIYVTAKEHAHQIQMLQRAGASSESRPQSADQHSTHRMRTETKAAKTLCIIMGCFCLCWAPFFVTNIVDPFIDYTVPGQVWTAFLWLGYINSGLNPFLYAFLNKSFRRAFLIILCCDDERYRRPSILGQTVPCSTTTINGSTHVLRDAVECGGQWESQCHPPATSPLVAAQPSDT
Muscarinic acetylcholine receptor M3 (Homo sapiens), sequence (P20309 whole entry, looked up): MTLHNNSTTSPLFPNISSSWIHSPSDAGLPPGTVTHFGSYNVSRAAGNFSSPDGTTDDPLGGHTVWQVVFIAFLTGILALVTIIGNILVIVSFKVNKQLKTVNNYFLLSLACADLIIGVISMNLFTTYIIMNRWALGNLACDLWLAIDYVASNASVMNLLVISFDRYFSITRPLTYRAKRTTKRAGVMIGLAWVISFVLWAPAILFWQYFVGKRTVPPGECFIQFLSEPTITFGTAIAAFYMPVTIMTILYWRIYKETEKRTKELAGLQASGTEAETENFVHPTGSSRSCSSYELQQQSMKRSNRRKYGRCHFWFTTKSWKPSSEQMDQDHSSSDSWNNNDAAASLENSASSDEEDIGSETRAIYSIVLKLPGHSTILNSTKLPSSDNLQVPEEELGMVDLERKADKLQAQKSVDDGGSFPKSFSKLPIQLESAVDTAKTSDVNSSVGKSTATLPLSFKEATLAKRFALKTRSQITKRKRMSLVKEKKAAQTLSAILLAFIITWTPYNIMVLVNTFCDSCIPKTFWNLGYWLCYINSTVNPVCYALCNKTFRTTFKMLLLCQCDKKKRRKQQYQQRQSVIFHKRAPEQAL
D(2) dopamine receptor (Homo sapiens), sequence (P14416 whole entry): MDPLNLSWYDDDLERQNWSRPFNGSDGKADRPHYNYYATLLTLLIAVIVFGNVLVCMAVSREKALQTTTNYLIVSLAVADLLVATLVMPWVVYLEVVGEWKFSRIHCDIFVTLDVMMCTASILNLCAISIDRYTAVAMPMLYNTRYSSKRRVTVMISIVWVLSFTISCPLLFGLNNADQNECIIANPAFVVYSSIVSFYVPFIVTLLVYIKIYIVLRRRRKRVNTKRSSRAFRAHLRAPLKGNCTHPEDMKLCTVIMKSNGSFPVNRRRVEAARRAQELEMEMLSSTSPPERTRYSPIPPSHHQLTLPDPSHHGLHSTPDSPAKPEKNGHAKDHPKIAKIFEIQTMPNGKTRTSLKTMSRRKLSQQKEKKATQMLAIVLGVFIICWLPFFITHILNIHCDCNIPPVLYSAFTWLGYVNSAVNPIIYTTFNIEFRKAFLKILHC
5-hydroxytryptamine receptor 2A (Homo sapiens), sequence (P28223 whole entry): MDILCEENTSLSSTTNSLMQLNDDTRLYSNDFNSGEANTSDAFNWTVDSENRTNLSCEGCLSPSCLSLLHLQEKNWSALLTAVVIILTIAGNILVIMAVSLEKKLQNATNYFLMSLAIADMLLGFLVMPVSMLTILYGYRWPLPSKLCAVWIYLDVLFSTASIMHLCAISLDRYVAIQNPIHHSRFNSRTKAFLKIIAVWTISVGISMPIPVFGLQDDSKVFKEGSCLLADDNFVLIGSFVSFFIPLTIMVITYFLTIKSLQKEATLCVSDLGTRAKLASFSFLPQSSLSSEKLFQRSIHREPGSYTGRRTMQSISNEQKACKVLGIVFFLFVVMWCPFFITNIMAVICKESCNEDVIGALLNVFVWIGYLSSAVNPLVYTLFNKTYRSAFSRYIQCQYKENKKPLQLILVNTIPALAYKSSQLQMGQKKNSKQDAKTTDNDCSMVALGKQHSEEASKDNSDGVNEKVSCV

As to `CN(CCNC(=O)c1ccc([N+](=O)[O-])cc1)Cc1ccccc1`, the values for the inhibition in [1], in experiment [2] and in [8] were 20%, 2% and 30%, respectively. Further, the Activity in [3] was -4%; in [4], 26%; in experiment [5], 0%; in experiment [6], -4%; in experiment [7], 8%; in [9], -1%. Moreover, the Activity in experiment [10] was 0%; in [11], 0%; in experiment [12] it was -1%.
